Columns and labels:
Type in all cases: cell-based
hFFA2 [1] = molecular target: T1, hFFA2 (Homo sapiens, UniProt O15552); assay: yeast reporter assay, operational model fit
T1 sequence (O15552 1-330): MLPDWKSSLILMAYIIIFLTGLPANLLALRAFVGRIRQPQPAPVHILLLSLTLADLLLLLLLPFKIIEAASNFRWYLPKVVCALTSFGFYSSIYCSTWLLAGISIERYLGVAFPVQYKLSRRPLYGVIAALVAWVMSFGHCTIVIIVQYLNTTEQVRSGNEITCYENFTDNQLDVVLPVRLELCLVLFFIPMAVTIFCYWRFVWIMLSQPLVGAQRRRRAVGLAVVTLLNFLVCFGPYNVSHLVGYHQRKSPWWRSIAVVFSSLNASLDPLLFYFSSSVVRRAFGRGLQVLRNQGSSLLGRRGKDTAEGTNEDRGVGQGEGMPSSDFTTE

hFFA2 [2] = molecular target: T1, hFFA2; assay: yeast reporter assay, antagonism
hFFA2 [3] = molecular target: T1, hFFA2; assay: LANCE cAMP assay, U2OS cells
hFFA2 [4] = molecular target: T1, hFFA2; assay: yeast FUS1-HIS3 reporter growth assay

A Kd (hFFA2 [1]) of 0.155 µM was found for `O=C(O)C[C@H](C(=O)Nc1nc(-c2ccccc2Cl)cs1)c1ccccc1` [compound 9, (S)-4-(4-(2-chlorophenyl)thiazol-2-ylamino)-4-oxo-3-phenylbutanoic acid] in this work.
A Kb (hFFA2 [2]) of 0.501 µM was found for `O=C(N[C@@H](Cc1c[nH]c2ccccc12)C(=O)O)c1ccc(Cl)cc1` [N-CBT, N-(4-Chlorobenzoyl)-L-tryptophan] in this work.
An EC50 (hFFA2 [3]) of 126 µM was found for `CC(=O)O` [C2, acetate] in this work.
An IC50 (hFFA2 [4]) of 0.186 µM was found for `CN(C(=O)[C@H]1CCCC[C@H]1C(=O)O)c1nc(-c2ccccc2Cl)cs1` [compound 101, cis-2-((4-(2-chlorophenyl)thiazol-2-yl)(methyl)carbamoyl)cyclohexaneccarboxylic acid] in this work.
